According to ChEMBL document CHEMBL3112450, “Synthesis and in vitro antitumor evaluation of primary amine substituted quinazoline linked benzimidazole” (Bioorg Med Chem Lett, 2014):

How the values were obtained:
Type in all cases: functional
[1] = tested on: M14; assay: Cytotoxicity against human M14 cells assessed as cell growth at 10^-6 M after 48 hrs by SRB assay; details: M14, 48 h, read-out: Activity
[2] = tested on: IGROV-1; assay: Cytotoxicity against human IGROV1 cells assessed as cell growth at 10^-7 M after 48 hrs by SRB assay; details: IGROV-1, 48 h, read-out: Activity
[3] = tested on: ACHN; assay: Cytotoxicity against human ACHN cells assessed as cell growth at 10^-6 M after 48 hrs by SRB assay; details: read-out: Activity
[4] = tested on: SNB-19; assay: Cytotoxicity against human SNB19 cells assessed as cell growth at 10^-7 M after 48 hrs by SRB assay; details: SNB-19, 48 h, read-out: Activity
[5] = tested on: PC-3; assay: Cytotoxicity against human PC3 cells assessed as cell growth at 10^-8 M after 48 hrs by SRB assay; details: PC-3, 48 h, read-out: Activity
[6] = Cytotoxicity against human OVCAR4 cells assessed as cell growth at 10^-4 M after 48 hrs by SRB assay; details: OVCAR-4, 48 h, read-out: Activity
[7] = tested on: DU-145; assay: Cytotoxicity against human DU145 cells assessed as cell growth at 10^-4 M after 48 hrs by SRB assay; details: DU-145, 48 h, read-out: Activity
[8] = tested on: KM12; assay: Cytotoxicity against human KM12 cells assessed as cell growth at 10^-8 M after 48 hrs by SRB assay; details: KM12, 48 h, read-out: Activity
[9] = tested on: M14; assay: Cytotoxicity against human M14 cells assessed as cell growth at 10^-8 M after 48 hrs by SRB assay; details: M14, 48 h, read-out: Activity
[10] = tested on: MDA-MB-435; assay: Cytotoxicity against human MDA-MB-435 cells assessed as cell growth at 10^-7 M after 48 hrs by SRB assay; details: MDA-MB-435, 48 h, read-out: Activity
[11] = tested on: MDA-MB-435; assay: Cytotoxicity against human MDA-MB-435 cells assessed as cell growth at 10^-4 M after 48 hrs by SRB assay; details: MDA-MB-435, 48 h, read-out: Activity
[12] = tested on: SF-295; assay: Cytotoxicity against human SF295 cells after 48 hrs by SRB assay; details: SF-295, 48 h
[13] = tested on: MDA-MB-468; assay: Cytotoxicity against human MDA-MB-468 cells after 48 hrs by SRB assay; details: MDA-MB-468, 48 h
[14] = tested on: COLO 205; assay: Cytotoxicity against human COLO205 cells after 48 hrs by SRB assay; details: COLO 205, 48 h
[15] = tested on: Malme-3M; assay: Cytotoxicity against human MALME-3M cells after 48 hrs by SRB assay
[16] = tested on: NCI-H460; assay: Cytotoxicity against human NCI-H460 cells after 48 hrs by SRB assay; details: NCI-H460, 48 h
[17] = tested on: HOP-62; assay: Cytotoxicity against human HOP62 cells assessed as cell growth at 10^-8 M after 48 hrs by SRB assay; details: HOP-62, 48 h, read-out: Activity
[18] = tested on: PC-3; assay: Cytotoxicity against human PC3 cells assessed as cell growth at 10^-6 M after 48 hrs by SRB assay; details: PC-3, 48 h, read-out: Activity
[19] = tested on: SN12C; assay: Cytotoxicity against human SN12C cells assessed as cell growth at 10^-7 M after 48 hrs by SRB assay; details: read-out: Activity
[20] = tested on: SK-MEL-2; assay: Cytotoxicity against human SK-MEL-2 cells after 48 hrs by SRB assay; details: SK-MEL-2, 48 h
[21] = tested on: COLO 205; assay: Cytotoxicity against human COLO205 cells assessed as cell growth at 10^-7 M after 48 hrs by SRB assay; details: COLO 205, 48 h, read-out: Activity
[22] = tested on: HT-29; assay: Cytotoxicity against human HT-29 cells after 48 hrs by SRB assay; details: HT-29, 48 h
[23] = tested on: CAKI-1; assay: Cytotoxicity against human Caki1 cells assessed as cell growth at 10^-6 M after 48 hrs by SRB assay; details: CAKI-1, 48 h, read-out: Activity
[24] = tested on: COLO 205; assay: Cytotoxicity against human COLO205 cells assessed as cell growth at 10^-6 M after 48 hrs by SRB assay; details: COLO 205, 48 h, read-out: Activity
[25] = tested on: MDA-MB-468; assay: Cytotoxicity against human MDA-MB-468 cells assessed as cell growth at 10^-7 M after 48 hrs by SRB assay; details: MDA-MB-468, 48 h, read-out: Activity
[26] = tested on: IGROV-1; assay: Cytotoxicity against human IGROV1 cells assessed as cell growth at 10^-8 M after 48 hrs by SRB assay; details: IGROV-1, 48 h, read-out: Activity
[27] = tested on: 786-0; assay: Cytotoxicity against human 786-0 cells assessed as cell growth at 10^-7 M after 48 hrs by SRB assay; details: 786-0, 48 h, read-out: Activity
[28] = tested on: CAKI-1; assay: Cytotoxicity against human Caki1 cells assessed as cell growth at 10^-8 M after 48 hrs by SRB assay; details: CAKI-1, 48 h, read-out: Activity
[29] = tested on: SK-OV-3; assay: Cytotoxicity against human SKOV3 cells assessed as cell growth at 10^-7 M after 48 hrs by SRB assay; details: SK-OV-3, 48 h, read-out: Activity
[30] = tested on: KM12; assay: Cytotoxicity against human KM12 cells after 48 hrs by SRB assay; details: KM12, 48 h
[31] = tested on: SK-MEL-5; assay: Cytotoxicity against human SK-MEL-5 cells assessed as cell growth at 10^-6 M after 48 hrs by SRB assay; details: SK-MEL-5, 48 h, read-out: Activity
[32] = tested on: SF-539; assay: Cytotoxicity against human SF539 cells after 48 hrs by SRB assay; details: SF-539, 48 h
[33] = tested on: SW-620; assay: Cytotoxicity against human SW620 cells assessed as cell growth at 10^-6 M after 48 hrs by SRB assay; details: SW-620, 48 h, read-out: Activity
[34] = tested on: OVCAR-8; assay: Cytotoxicity against human OVCAR8 cells assessed as cell growth at 10^-8 M after 48 hrs by SRB assay; details: OVCAR-8, 48 h, read-out: Activity
[35] = tested on: CAKI-1; assay: Cytotoxicity against human Caki1 cells assessed as cell growth at 10^-4 M after 48 hrs by SRB assay; details: CAKI-1, 48 h, read-out: Activity
[36] = tested on: RXF 393; assay: Cytotoxicity against human RXF393 cells after 48 hrs by SRB assay; details: RXF 393, 48 h
[37] = tested on: OVCAR-3; assay: Cytotoxicity against human OVCAR3 cells after 48 hrs by SRB assay; details: OVCAR-3, 48 h
[38] = tested on: HT-29; assay: Cytotoxicity against human HT-29 cells assessed as cell growth at 10^-7 M after 48 hrs by SRB assay; details: HT-29, 48 h, read-out: Activity
[39] = tested on: M14; assay: Cytotoxicity against human M14 cells after 48 hrs by SRB assay; details: M14, 48 h

C=CCn1c(C)nc2ccc(Nc3nc(Nc4ccc5nc(C)n(CC=C)c5c4)c4ccccc4n3)cc21
growth at 1 µM [1]: 88% | growth at 0.1 µM [2]: 101% | growth at 1 µM [3]: 91% | growth at 0.1 µM [4]: 92% | growth at 0.01 µM [5]: 93% | growth at 100 µM [6]: -43% | growth at 100 µM [7]: -75% | growth at 0.01 µM [8]: 96% | growth at 0.01 µM [9]: 96% | growth at 0.1 µM [10]: 98% | growth at 100 µM [11]: -5% | GI50 [12]: 1840 nM | TGI [12]: 3530 nM | GI50 [13]: 1220 nM | TGI [13]: 2480 nM | GI50 [14]: 1430 nM | TGI [14]: 2740 nM | GI50 [15]: 1900 nM | TGI [15]: 3680 nM | GI50 [16]: 1890 nM | TGI [16]: 3700 nM | growth at 0.01 µM [17]: 99% | growth at 1 µM [18]: 71% | growth at 0.1 µM [19]: 94% | GI50 [20]: 1960 nM | TGI [20]: 3540 nM | growth at 0.1 µM [21]: 101% | GI50 [22]: 1850 nM | TGI [22]: 3390 nM | growth at 1 µM [23]: 90% | growth at 1 µM [24]: 78% | growth at 0.1 µM [25]: 92% | growth at 0.01 µM [26]: 100% | growth at 0.1 µM [27]: 98% | growth at 0.01 µM [28]: 93% | growth at 0.1 µM [29]: 95% | GI50 [30]: 1640 nM | TGI [30]: 3080 nM | growth at 1 µM [31]: 91% | GI50 [32]: 1710 nM | LC50 (concentration giving 50% net cell kill) [32]: 5710 nM | TGI [32]: 3120 nM | growth at 1 µM [33]: 80% | growth at 0.01 µM [34]: 97% | growth at 100 µM [35]: -28% | GI50 [36]: 1800 nM | TGI [36]: 3280 nM | GI50 [37]: 1700 nM | TGI [37]: 3080 nM | growth at 0.1 µM [38]: 101% | GI50 [39]: 1620 nM | TGI [39]: 3040 nM
